± gives the standard deviation of the averaged measurements.
What was measured:
CAMPTOTHECIN [1] = compound: T1, CC[C@@]1(O)C(=O)OCc2c1cc1n(c2=O)Cc2cc3ccccc3nc2-1 [CAMPTOTHECIN]; assay: surviving fraction relative to DMSO-only wells; higher = less growth inhibition; conditions: exposure time: 5 days
Method in brief: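 Inhibitors were tested at 0.5, 1, 5, 10, 50, 100, 500 and 1000 nM, applied continuously for five days beginning 24 hours after log-phase tumour cells were seeded at 250–500 per well in 384-well plates. CellTiter-Glo luminescence served as the viability measure, expressed as surviving fraction against the median of DMSO-only wells. Each line, screened three times, was kept only with replicate Pearson r >0.7 and median Z' >0.3.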

CELECOXIB = compound: Cc1ccc(-c2cc(C(F)(F)F)nn2-c2ccc(S(N)(=O)=O)cc2)cc1 [CELECOXIB]; assay: area under dose-response curve of surviving fraction (unscaled, Aref=0) (surviving fraction x log10(nM)); higher = more resistant; conditions: exposure time: 5 days; dose range 0.5-1000 nM
Method in brief: (§1)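 Surviving fractions were fitted by 3-parameter logistic regression in the drc R package to give dose-response survival curves. They came from tumour cell lines treated for five days with eight inhibitor concentrations from 0.5 to 1000 nM and read by CellTiter-Glo luminescence against DMSO-only wells. The area under the curve is the unscaled activity area. It was calculated over log10 dose with Aref = 0.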

CAMPTOTHECIN [2] = compound: T1, CAMPTOTHECIN; assay: as above; conditions: exposure time: 5 days; dose range 0.5-1000 nM
Method in brief: as §1

YM155 = compound: COCC[n+]1c2c(n(Cc3cnccn3)c1C)C(=O)c1ccccc1C2=O [YM155]; assay: as above; conditions: exposure time: 5 days; dose range 0.5-1000 nM
Method in brief: as §1

CARBOPLATIN = compound: O=C(O)C1(C(=O)O)CCC1.[NH2-].[NH2-].[Pt+2] [CARBOPLATIN]; assay: as above; conditions: exposure time: 5 days; dose range 0.5-1000 nM
Method in brief: as §1

[3] = compound: CC(=O)NCC(=O)N1[C@@H]2CC[C@H]1c1ccc(Nc3ncc(C(F)(F)F)c(NC4CCC4)n3)cc12; assay: as above; conditions: exposure time: 5 days; dose range 0.5-1000 nM
Method in brief: as §1

PACLITAXEL = compound: CC(=O)O[C@H]1C(=O)[C@@]2(C)[C@H]([C@H](OC(=O)c3ccccc3)[C@]3(O)C[C@H](OC(=O)[C@H](O)[C@@H](NC(=O)c4ccccc4)c4ccccc4)C(C)=C1C3(C)C)[C@]1(OC(C)=O)CO[C@@H]1C[C@@H]2O [PACLITAXEL]; assay: as above; conditions: exposure time: 5 days; dose range 0.5-1000 nM
Method in brief: as §1

[4] = compound: CC(=O)c1c(C)c2cnc(Nc3ccc(N4CCNCC4)cn3)nc2n(C2CCCC2)c1=O; assay: as above; conditions: exposure time: 5 days; dose range 0.5-1000 nM
Method in brief: as §1

GEFITINIB = compound: COc1cc2ncnc(Nc3ccc(F)c(Cl)c3)c2cc1OCCCN1CCOCC1 [GEFITINIB]; assay: as above; conditions: exposure time: 5 days; dose range 0.5-1000 nM
Method in brief: as §1

OSI-906 = compound: C[C@]1(O)C[C@@H](c2nc(-c3ccc4ccc(-c5ccccc5)nc4c3)c3c(N)nccn32)C1 [OSI-906]; assay: as above; conditions: exposure time: 5 days; dose range 0.5-1000 nM
Method in brief: as §1

| Test System | surviving fraction (CAMPTOTHECIN [1]; 0.5 nM) | surviving fraction (CAMPTOTHECIN [1]; 1 nM) | surviving fraction (CAMPTOTHECIN [1]; 5 nM) | surviving fraction (CAMPTOTHECIN [1]; 10 nM) | surviving fraction (CAMPTOTHECIN [1]; 50 nM) | surviving fraction (CAMPTOTHECIN [1]; 100 nM) | surviving fraction (CAMPTOTHECIN [1]; 500 nM) | surviving fraction (CAMPTOTHECIN [1]; 1000 nM) | area under dose-response curve (CELECOXIB) | area under dose-response curve (CAMPTOTHECIN [2]) | area under dose-response curve (YM155) | area under dose-response curve (CARBOPLATIN) | area under dose-response curve [3] | area under dose-response curve (PACLITAXEL) | area under dose-response curve [4] | area under dose-response curve (GEFITINIB) | area under dose-response curve (OSI-906) |
| --- | --- | --- | --- | --- | --- | --- | --- | --- | --- | --- | --- | --- | --- | --- | --- | --- | --- |
| MDAMB453 BREAST | 0.966 ± 0.069 | 0.966 ± 0.017 | 1.01 ± 0.048 | 0.942 ± 0.058 | 0.43 ± 0.03 | 0.453 ± 0.015 | 0.109 ± 0.016 | 0.091 ± 0.0027 | 3.64 | 2.11 | 1.04 | 3.54 | 2.73 | 1.23 | 3.52 |  |  |
| CCK81 LARGE INTESTINE | 0.789 ± 0.034 | 0.805 ± 0.085 | 0.693 ± 0.16 | 0.542 ± 0.097 | 0.506 ± 0.051 | 0.416 ± 0.046 | 0.056 ± 0.007 | 0.0267 ± 0.0049 | 2.59 | 1.63 | 2.51 | 2.67 |  |  |  | 1.85 | 2.3 |
| HCC202 BREAST | 1.05 ± 0.027 | 0.866 ± 0.17 | 0.734 ± 0.082 | 0.691 ± 0.24 | 0.78 ± 0.14 | 0.767 ± 0.1 | 0.478 ± 0.0071 | 0.357 ± 0.0042 |  |  |  |  | 4.5 | 1.37 | 3.11 |  |  |
| HCC70 BREAST | 0.905 ± 0.12 | 1.04 ± 0.029 | 0.958 ± 0.092 | 0.63 ± 0.044 | 0.443 ± 0.045 | 0.385 ± 0.015 | 0.119 ± 0.061 | 0.0573 ± 0.0076 | 3.62 | 1.9 | 2.27 | 3.56 | 2.46 | 0.799 | 3.53 |  | 3.29 |
| HCC78 LUNG | 0.33 ± 0.059 | 0.597 ± 0.15 | 0.0267 ± 0.0057 | 0.0123 ± 0.0031 | 0.0137 ± 0.0031 | 0.0147 ± 0.0023 | 0.013 ± 0.0027 | 0.016 ± 0.0027 | 3.06 | 0.338 | 0.851 | 3.35 | 2.33 | 0.585 |  |  | 2.75 |
| NOS1 BONE | 0.833 ± 0.15 | 0.867 ± 0.02 | 0.663 ± 0.067 | 0.494 ± 0.059 | 0.636 ± 0.037 | 0.552 ± 0.036 | 0.392 ± 0.039 | 0.337 ± 0.026 | 3.88 | 1.96 | 1.08 | 3.95 |  | 1.13 | 3.53 |  | 2.83 |
| SCC47 HEADNECK | 0.917 ± 0.019 | 0.924 ± 0.086 | 0.959 ± 0.019 | 0.919 ± 0.016 | 0.46 ± 0.012 | 0.375 ± 0.029 | 0.204 ± 0.0038 | 0.118 ± 0.0095 | 3.63 | 2.11 | 1.31 |  | 2.87 | 1.02 |  | 3 | 3.41 |
| VP229 BREAST | 0.862 ± 0.018 | 0.912 ± 0.14 | 0.794 ± 0.17 | 0.662 ± 0.14 | 0.569 ± 0.037 | 0.348 ± 0.084 | 0.0443 ± 0.01 | 0.0333 ± 0.0031 | 4.03 | 1.81 | 1.79 | 3.55 | 2.78 | 1.56 |  | 2.63 | 2.77 |
